Results: patent US20170333407A1, “METHOD FOR TREATING UNDERACTIVE BLADDER SYNDROME” (William Beaumont Hospital, priority 2014, published 2017)
Several values for one entry are separate records, joined by “and”; a condition that tells them apart may be missing. Identical values can stand only once. Entries after “also recorded” stand apart in the source; their conditions may differ.

Tested on: patients with symptoms of UAB syndrome
Test: Treatment of patients with symptoms of UAB syndrome with cevimeline (Qmax, PVR, UAB symptom questionnaire)
Assay type: in vivo, human
Conditions: for UAB Score: five-question UAB symptom questionnaire, lower score = improvement; for UAB Score / PVR (residual urine volume in the bladder) / Qmax (maximum urine flow rate): individual patients
Text: Six different patients who each suffered from one or more medical conditions and symptoms of UAB syndrome were examined. UAB symptom-related data obtained from the patients before and after treatment with cevimeline was obtained from some of the patients and is presented below in Tables I-IV. […] Quantitative measurements were made to determine maximum urine flow rate Qmax (expressed in mL/s) and residual urine volume in the bladder PVR (expressed in mL). Qualitative measurements were obtained based on the patient's perceived UAB symptoms. A lower UAB score indicates an improvement in UAB symptoms. […] 4 and 6 after one week of treatment with cevimeline. Cevimeline was administered to each patient in 30 mg doses, three times per day. […] Specifically, the volume of residual urine in the bladder of patient 6 decreased from a baseline volume of 120 mL to a treated volume of 28 mL. To assess for qualitative improvement of UAB symptoms upon administration of cevimeline, patients were surveyed using a five-question UAB symptom questionnaire. The UAB score was then tallied from the patient responses. […] 4 and 6 after a two-week treatment with cevimeline. Cevimeline was administered to each patient in 60 mg doses, three times per day.

[1] = after one week of treatment with cevimeline 30 mg tid
[2] = after two weeks of treatment with cevimeline 60 mg tid

Question: `C[C@@H]1O[C@@]2(CS1)CN1CCC2CC1` [cevimeline, (2R,5R)-2-methylspiro[1,3-oxathiolane-5,3′-1-azabicyclo[2.2.2]octane]] was tested. Which “UAB Score” value [1] did it give?
Answer: 12 and 9 (2×)

Question: And the “PVR (residual urine volume in the bladder)” value [1]?
Answer: 28 mL and 240 mL

Question: What about the “Qmax (maximum urine flow rate)” value [1] of the same compound?
Answer: 2.9 mL/s and 3 mL/s

Question: And the “improvement in UAB symptoms (in words)” value (after one week, 30 mg three times per day, patient 4 and patient 6)?
Answer: did not demonstrate any quantitative or qualitative improvement; also recorded: did show quantitative improvement

Question: What about the “UAB Score” value [2] of the same compound?
Answer: 7

Question: And the “PVR (residual urine volume in the bladder)” value [2]?
Answer: 92 mL and 69 mL

Question: What about the “Qmax (maximum urine flow rate)” value [2] of the same compound?
Answer: 9.5 mL/s and 9.9 mL/s

Question: What about the “improvement of UAB syndrome-related symptoms (in words)” value (after two-week treatment, 60 mg three times per day, patient 4 and patient 6) of the same compound?
Answer: demonstrated both quantitative and qualitative improvements

Question: And the “overall effect on symptoms related to UAB syndrome (in words)” value (initial data from preliminary studies)?
Answer: effective at treating the symptoms related to UAB syndrome
